Data set [1] relates to α-tubulin hyperacetylation, corresponding to HDAC6 inhibition. Briefly: α-tubulin hyperacetylation in cells. The note with it: for α-tubulin hyperacetylation versus histone hyperacetylation: at 2.5 µM.
The test system of data set [2] is histone hyperacetylation, corresponds to class I HDAC inhibition. Briefly: histone hyperacetylation in cells. The settings on record: at 10 µM.
In data set [3] the test system is primary cortical neuron cultures. Briefly: Neuronal toxicity of compound alone. The note with it: all concentrations tested, without HCA, 24 h, MTT. The data set is classed as cell-based, Sprague-Dawley rats.
Data set [4] shares this test system. The experiment in a line: HCA oxidative stress neuroprotection assay.
For another data set, the system named is α-tubulin acetylation. The note with it: at 5 µM; ref 29 (Parmigiani et al.); cited from earlier work.

Each structure is given as a SMILES string. Entries after “also recorded” stand apart in the source; their conditions may differ.

Consider `CN1CCc2c(c3ccccc3n2Cc2ccc(C(=O)NO)cc2)C1.O=C(O)C(F)(F)F` [compound 6, Tubastatin A], for which the “α-tubulin hyperacetylation versus histone hyperacetylation” value in data set [1] was “preferentially induced α-tubulin hyperacetylation”. Further, the “levels of acetylated α-tubulin” value in data set [1] (primary cortical neuron cultures) is recorded as “induce elevated levels of acetylated α-tubulin”. Further, the “in vitro ADME properties” value in “in vitro ADME properties” is reported as “favorable in vitro ADME properties”. In addition, the histone hyperacetylation entry in data set [2] is recorded as “Slight induction of histone hyperacetylation”. Besides, the “neuronal toxicity when tested alone” value in data set [3] is reported as “exhibited no toxicity; also recorded: no neuronal toxicity”. Further, the “concentration at which protection against HCA-induced neuronal cell death starts” value in data set [4] (HCA 5 mM, 24 h, MTT) is on record as 5 µM. Further, the “protection against HCA-induced neuronal cell death (glutathione depletion-induced oxidative stress)” value in data set [4] (HCA 5 mM, 24 h, MTT, concentration series) is on record as “dose-dependent protection”. Moreover, in data set [4] (at 10 µM, HCA 5 mM, 24 h, MTT), the “protection against HCA-induced neuronal cell death” value is given as “near complete protection”.
For the compound `CC(/C=C/C(=O)NO)=C\[C@@H](C)C(=O)c1ccc(N(C)C)cc1` [TSA, trichostatin A, reference compound], the “neuroprotection in HCA-induced neurodegeneration assay” value in data set [4] (at 0.5 µM, HCA 5 mM, 24 h, MTT) was “moderately neuroprotective”. The “neurotoxicity in HCA-induced neurodegeneration assay” value in data set [4] (at concentrations higher than 0.5 µM, protection declined) is “dose-dependant neurotoxicity”.
Regarding `O=C(CCCCCCC(=O)Nc1ccc([C@H]2O[C@@H](CSc3nc(-c4ccccc4)c(-c4ccccc4)o3)C[C@@H](c3ccc(CO)cc3)O2)cc1)NO` [Tubacin, reference compound], in data set [1], the “α-tubulin hyperacetylation versus histone hyperacetylation” value is “preferentially induced α-tubulin hyperacetylation”. Also, the α-tubulin acetylation entry in the data set with α-tubulin acetylation is “induces α-tubulin acetylation”.

The record behind these values is PMC2916045 (Journal of the American Chemical Society, 2010).
